Laboratory results from patent US20110105959A1, “Novel Methods for Bone Treatment by Modulating an Arachidonic Acid Metabolic or Signaling Pathway” (ACCELALOX, INC., priority 2008, published 2011).

Experiments:
[1] = tested on: fetal rat calvaria (osteoblast) cells; details: in vitro; cited from earlier work
mouse calvaria = details: in vitro organ culture; cited from earlier work
[2] = tested on: 8 mm diaphyseal segmental defect in the right femur; assay: Femur segmental defect repaired with scaffold impregnated with calcium sulfate containing a leukotriene pathway modifier; assay type: in vivo, Sprague-Dawley rats; details: after 3 weeks of healing; local application in calcium sulfate, 1-5% w/w; FIG. 16
Source text: Male Sprague-Dawley rats underwent surgery during which an 8 mm diaphyseal, segmental defect in the right femur was made as described by Rai et al. [Combination of platelet-rich plasma with polycaprolactone-tricalcium phosphate scaffolds for segmental bone defect repair. Journal of Biomedical Materials Research […]:888-899 (2007)]. The defect was repaired with a polycaprolactone-tricalcium phosphate scaffold (8 mm long×3 mm diameter; Osteopore International, Singapore) or the scaffold impregnated with calcium sulfate containing a leukotriene pathway modifier. […] Journal of Medicinal Chemistry 43:721-735 (2000)]; and LY-255283 (1% w/w), a potent and specific leukotriene B4 receptor antagonist [Herron et al. Leukotriene B4 receptor antagonists: the LY255283 series of hydroxyacetophenones. Journal of Medicinal Chemistry 35:1818-1828 (1992)]. Healing of the segmental defects was assessed after 3 weeks of healing by radiographs (FIG. 16).

[3] = tested on: 5-lipoxygenase or LTA4 hydrolase activity measured by the level of LTB4 in platelet-rich plasma; assay: Ex vivo treatment of platelet-rich plasma, leukotriene B4 levels by enzyme-linked immune-assay; assay type: cell-based, rat; details: FIG. 9; 1 ug/ml; activated with thrombin and calcium chloride
Source text: Platelet-rich plasma is used clinically to augment fracture healing and other osteogenic processes [Wrotniak et al. Current opinion about using the platelet-rich gel in orthopaedics and trauma surgery. […] Platelet-rich plasma is enriched with platelets and white blood cells from whole blood by centrifugal separation. White blood cells, such as, macrophages, monocytes, and neutrophils, are a major source of 5-lipoxygenase activity [Woods et al. 5-lipoxygenase and 5-lipoxygenase-activating protein are localized in the nuclear envelope of activated human leukocytes.
Male Sprague-Dawley rats (450-500 g body weight) were used. Platelet-rich plasma was prepared as described previously using differential centrifugation [Gandhi et al. The effects of local platelet rich plasma delivery on diabetic fracture healing. […] Five minutes after drug treatment, the treated platelet-rich plasma was activated by addition of thrombin (100 units/ml) and calcium chloride (10 mg/ml) followed by incubation for 15 minutes at 37° C. The reaction was stopped and the platelet-rich plasma was separated by high-speed centrifugation (14,000 RPM). The supernatant was collected and assayed for leukotriene B4 levels using a commercial enzyme-linked immune-assay from Cayman Chemicals, Ann Arbor, Mich.

closed femur fracture = assay: Closed femur fracture healing in rats treated with 5-LO inhibitors (radiographs, torsional mechanical testing); assay type: in vivo, Sprague-Dawley rats; details: for fracture bridging / healing on radiographs: Example 4, FIG. 8, NDGA 30 mg/kg or AA-861 5 mg/kg twice daily until day 21, 3 weeks of healing; for greater peak torque than vehicle treated rats: Example 4, FIG. 8D, torsional mechanical testing after 5 weeks of healing, NDGA 30 mg/kg, AA-861 5 mg/kg; for mode of femur failure in torsional mechanical testing: Example 4, after 5 weeks of healing
Method: Sprague-Dawley rats (3 months old) underwent a standard closed femur fracture procedure as described in the art [Simon et al., Cyclo-oxygenase 2 function is essential for bone fracture healing. Journal of Bone and Mineral Research, 17: 963-976 (2002); Bonnarens and Einhorn, Production of a standard closed fracture in laboratory animal bone. Journal of Orthopaedic Research, 2: 97-101 (1984)]. The impending fracture was stabilized with an intramedullary stainless steel pin. Beginning 4 hours after fracture the rats were treated with 30 mg/kg of NDGA (nordihydrogaiaretic acid) in 1% methylcellulose (5-lipoxygenase inhibitor treatment group) or with carrier only (1% methylcellulose). The day after surgery and continuing until day 14 post-fracture, experimental rats were treated with 2 doses of NDGA (30 mg/kg), the first dose between […] and then again with another NDGA dose 8-10 hours later. Control rats were treated similarly but with carrier only (1% methylcellulose). Three weeks after fracture, the rats were sacrificed, the fractured femurs were harvested, and high resolution radiographs were made of the fractured femurs using a Packard Faxitron and Kodak MinR2000 mammography film. Two representative radiographs are shown in FIG. 7 for each treatment group: control and 5-lipoxygenase (5-LO) inhibitor treated.
Sprague-Dawley rats (3 months old) underwent a standard closed femur fracture procedure as described in the art (Simon et al., Cyclo-oxygenase 2 function is essential for bone fracture healing. Journal of Bone and Mineral Research, 17: 963-976 (2002); Bonnarens and Einhorn, Production of a standard closed fracture in laboratory animal bone. Journal of Orthopaedic Research, 2: 97-101 (1984)]. The impending fracture was stabilized with an intramedullary stainless steel pin. Beginning 4 hours after fracture the rats were treated with vehicle (1% methylcellulose) or inhibitors of 5-LO suspended in 1% methylcellulose. Inhibitor A (NDGA) was administered at 30 mg/kg and Inhibitor B (AA-861) was administered at 5 mg/kg. The day after surgery and continuing until day 21 post-fracture, experimental rats were treated with 2 doses of inhibitor (either A or B), the first dose between 8-10 AM and then again with another dose 8-10 hours later. Control rats were treated similarly but with carrier only (1% methylcellulose). Three weeks after fracture the rats were anesthetized and high resolution radiographs were made of the fractured femurs using a Packard Faxitron and Kodak MinR2000 mammography film (FIGS. 8A, 8B, and 8C). Five weeks after fracture the rats were sacrificed, femurs resected, and assayed for structural mechanical properties by torsional mechanical testing (FIG. 8D).

Saos-2 cells = details: in vitro; LTB4 at higher concentration (0.3-1 micromolar); cited from earlier work
[4] = tested on: critical-size (8 mm) femur segmental defect; assay: Critical-size femur segmental defect repaired with scaffold laden with ex vivo treated bone marrow; assay type: in vivo, Sprague-Dawley rats; details: for mineralized tissue in the femur segmental defect on radiographs: 2 weeks after implantation, marrow treated ex vivo, versus vehicle-bone marrow scaffold control; for bone remodeling at the fracture site compared to control rats: FIG. 10, bone marrow aspirate treated ex vivo prior to administration
Method: Critical-size (8 mm) segmental defects were made in the right femur of 450-500 g male Sprague-Dawley rats. The defects were repaired as described by Rai et al. [Combination of platelet-rich plasma with polycaprolactone-tricalcium phosphate scaffolds for segmental defect repair. Journal of Biomedical Materials Research 81A:888-899 (2007)] except the polycaprolactone-tricalcium phosphate scaffolds were filled with autologous bone marrow that was treated ex vivo as described below rather than with platelet-rich plasma.
Following induction of anesthesia, bone marrow was harvested from the left femur of each rat. A medial peripatellar incision was made to the left femur and the patella was dislocated laterally to provide access to the femoral condyles. Using an 18 gauge needle, a hole was drilled into the femoral canal and the bone marrow collected into the bore of the 18 gauge needle. The marrow was forced from the syringe needle into a small test tube using 100 μl of saline containing 20 units of heparin. The harvested marrow was then treated with the dimethyl sulfoxide (DMSO) or AA-861 (1 μl of 100 mg/ml in DMSO) which is a 5-LO inhibitor. After 5 minutes, 20 μl of a thrombin and CaCl2 solution (1,000 units thrombin per ml in 10% CaCl2) was added to each marrow sample. Each marrow sample was gently mixed and applied to a polycaprolactone-tricalcium phosphate scaffold that was set upright in a 0.2 ml tube. Each marrow-laden scaffold was incubated at room temperature for 10 minutes to allow clotting to occur and was then inserted into the femoral defects.
Critical-size femoral defects were made in male Sprague-Dawley rats as described above in EXAMPLE 7. The defects were treated with bone marrow laden scaffolds as described above. […] Journal of Medicinal Chemistry 43:721-735 (2000)] (FIG. 10C), or with (c) LY-255283 (5 μl of a 1 mg/ml solution in DMSO) which is a leukotriene B4 receptor antagonist [Herron et al. Leukotriene B4 receptor antagonists: the LY255283 series of hydroxyacetophenones. Journal of Medicinal Chemistry 35:1818-1828 (1992)] (FIG. 10D).

G292 cells = details: in vitro; LTB4 at higher concentration (0.3-1 micromolar); cited from earlier work
[5] = tested on: primary rat calvaria (osteoblast) cultures; details: in vitro; cited from earlier work

| Molecule | alkaline phosphatase activity [1] | bone nodule formation [1] | bone formation in the segmental defect region on radiographs compared to scaffold-only group [2] | activity of 5-lipoxygenase or LTA4 hydrolase, measured by the level of the LTB4 metabolite, in platelet-rich plasma [3] | Saos-2 cell proliferation (Saos-2 cells) | mineralized tissue in the femur segmental defect on radiographs [4] | bone remodeling at the fracture site compared to control rats [4] | also measured |
| --- | --- | --- | --- | --- | --- | --- | --- | --- |
| 5-hydroxyeicosatetraenoic acid [5-HETE] | reduce | reduce | – | – | – | – | – | BMP2 induced increase in mouse calvaria thickness (mouse calvaria): prevented |
| CC1=C(C)C(=O)C(CCCCC#CCCCC#CCO)=C(C)C1=O [AA-861, 2-(12-hydroxydodeca-5,10-diynyl)-3,5,6-trimethyl-1,4-benzoquinone] | – | – | significantly more bone formation | significantly reduces | no effect | more extensive mineralized tissue | more extensive bone remodeling | fracture bridging / healing on radiographs (closed femur fracture): fractures healing faster; greater peak torque than vehicle treated rats (closed femur fracture): 53%; mode of femur failure in torsional mechanical testing (closed femur fracture): failed as boney unions |
| CCCCC/C=C\C[C@@H](O)/C=C/C=C/C=C\[C@@H](O)CCCC(=O)O [LTB4, leukotriene B4] | reduce | reduce | – | – | promote proliferation | – | – | G292 cell proliferation (G292 cells): promote proliferation; proliferation of primary rat calvaria (osteoblast) cultures [5]: reduces proliferation; BMP2 induced increase in mouse calvaria thickness (mouse calvaria): prevented |
| CCCCC/C=C\C\C=C/C=C/C=C/[C@@H](SC[C@H](NC(=O)CC[C@H](N)C(=O)O)C(=O)NCC(=O)O)[C@@H](O)CCCC(=O)O [LTC4, leukotriene C4] | – | – | – | – | no effect | – | – | G292 cell proliferation (G292 cells): promote proliferation; proliferation of primary rat calvaria (osteoblast) cultures [5]: no effect |
| CCCCC/C=C\C\C=C/C=C/C=C/[C@@H](SC[C@H](N)C(=O)NCC(=O)O)[C@@H](O)CCCC(=O)O [LTD4, leukotriene D4] | no effect | no effect | – | – | – | – | – | – |
| CCc1cc(C(C)=O)c(O)cc1OCCCCCC(C)(C)c1nnn[nH]1 [LY-255283, 1-(5-ethyl-2-hydroxy-4-(6-methyl-6-(1H-tetrazol-5-yl)-heptyloxy)phenyl)ethanone] | – | – | significantly more bone formation | – | – | some evident mineralized tissue | more extensive bone remodeling | – |
| CC(C)c1ccc2c(c1)c(SC(C)(C)C)c(CC(C)(C)C(=O)O)n2Cc1ccc(Cl)cc1 [MK-886, 3-[1-(4-chlorobenzyl)-3-t-butyl-thio-5-isopropylindol-2-yl]-2,2-dimethylpropanoic acid] | – | – | significantly more bone formation | significantly reduces | – | – | – | – |
| CC(Cc1ccc(O)c(O)c1)C(C)Cc1ccc(O)c(O)c1 (centres unmarked) [NDGA, nordihydroguaiaretic acid] | – | – | – | – | – | – | – | fracture bridging / healing on radiographs (closed femur fracture): fractures healing faster; greater peak torque than vehicle treated rats (closed femur fracture): 22%; mode of femur failure in torsional mechanical testing (closed femur fracture): failed as boney unions |
| c1ccc(-c2ccc(OCCN3CCCC3)cc2)cc1 [SC-22716, 1-[2-(4-Phenylphenoxy)ethyl]pyrrolidine] | – | – | significantly more bone formation | – | – | more extensive mineralized tissue | more extensive bone remodeling | – |
| CC(c1cc2ccccc2s1)N(O)C(N)=O (centres unmarked) [zileuton, N-(1-benzo[b]thien-2-ylethyl)-N-hydroxyurea] | – | – | – | significantly reduces | – | – | more extensive bone remodeling | – |
